Results on 3 molecules are retold here after US20260049064A1, “PROTEIN:PROTEIN INTERACTION INHIBITORS” (Purdue Research Foundation, priority 2022, published 2026).

A value given as a limit tells only on which side of the number the result lay.

Holding throughout (format): cell-based
For series [1], the target named is T1, PRMT5:MEP50 protein-protein interaction (Homo sapiens, UniProt O14744). As to the kind of experiment: BiFC drug screen of PRMT5:MEP50 interaction in COS-1 cells. The arrangement: expressed in transfected cells; host or cells: COS-1. As to conditions: for rank in BiFC screen (inhibition of PRMT5:MEP50): 18 hours. The method, then:
(§1) BiFC Drug Screens: COS-1 cells were grown in DMEM and seeded to 50,000 cells/well of a 12-well plate and allowed to attach for 24 hours. Cells were then transfected with three plasmids pMyc-VN155-PRMT5, pHA-VC-MEP50, and pFLAG-NLS-CFP to visualize the interaction between PRMT5:MEP50. For BiFC screens, the COS-1 cells were treated with compound or DMSO to final concentration (10 μM for compound 1-12 screen and 0.25, 0.50, 0.75, 1.0, and 5.0 μM or subsequent compound 8 screen) six hours after transfection and returned to the incubator. Following 24 hours after transfection, cells were imaged on a Nikon TE-2000U microscope and images for CFP, YFP, and phase contrast were acquired using MetaMorph software (Nikon) with 20× objective. Images were analyzed with ImageJ^70. Regions of Interest (ROI) were selected around each cell, and mean intensity was measured for each selection. A YFP:CFP ratio was calculated for DMSO as well as control treatment cells. The YFP:CFP ratio was then normalized to that of DMSO to generate the BiFC Efficiency score. The lower score indicated less PRMT5:MEP50 PPI detected in a given cell or treatment group. Inhibition (% Inhibition) is calculated as a percent of 100%−the BiFC Efficiency. Referring to FIGS. 6A-6C, for the BiFC screen of compounds 13-22 (including 8a and 8b), COS-1 cells were transfected for 24 hours, treated with 0.5 μM of compounds for 18 hours, and then imaged as described above. Referring to FIG. 6C, for the BiFC screen of compounds 23-26 (including 8a and 8b), COS-1 cells were transfected for 24 hours, treated with 0.25 M of compounds for 18 hours, and then imaged as described above. BiFC drug screens were performed in single biological replicate as a high throughput screen to produce ranked order of compounds, although multiple biological replicate data was used whenever available.

Series [2] relates to androgen receptor (AR) gene. As to the kind of experiment: RT-qPCR expression of AR in LNCaP cells. As to conditions: 500 nM, 72 hours. The method, then:
(§2) LNCaP cells were seeded to either 6 cm or 10 cm dishes at 800,000 or 2,200,000 cells/dish respectively. Cells were allowed to attach for 24 hours and then subsequently treated with either compound 17 (500 nM) or DMSO for 72 hours. Cells were then harvested with Trizol reagent (Ambion) and RNA integrity was verified via agarose gel electrophoresis. […] was utilized following manufacturer instructions and as described previously, as described in Deng et al., Oncogene 2017, 36 (9), 1223-123; Hsu et al., Mol. Cell. Endocrinol. 2013, 372 (1-2), 12-221; and Zhang et al., Biochim. Biophys. Acta 2014, 1839 (11), 1330-1340, each of which is incorporated herein by reference in its entirety for its teachings regarding same. RT-qPCR was performed with FastStart Universal SYBR Green Master Mix (Thermo Fisher Scientific) and detected on a QuantStudio 6 Flex with QuantStudio Real-Time PCR control software (Thermo Fisher Scientific). QuantStudio Design and Analysis software (Thermo Fisher Scientific) was used for data analysis. Technical triplicates were run for all samples, samples without detectable amplification were deemed undetected. Primer sets were validated via melt curve and agarose gel analysis of RT-qPCR product. AR primers were used as described in Deng et al., Oncogene 2017, 36 (9), 1223-123. […]
(In general: In qPCR the cycle at which signal appears reflects the starting amount.)

The subject of series [3] is H4R3me2s. As to the kind of experiment: Global histone H4R3me2s western blot in LNCaP cells. As to conditions: 72 hours. The method, then:
For global histone H4R3 and H4R3me2s western blots, cell lysate was prepared in RIPA buffer (10 mM Tris-HCl pH 8.0, 5 mM EDTA, 1% Triton X-100, 0.1% sodium deoxycholate, 0.1% sodium dodecyl sulfate, 150 mM sodium chloride, and 5 μg/mL each chymostatin, leupeptin, pepstatin A, and antipan in DMSO, with 1 mM PMSF and total soluble protein was quantified using Bradford assay. 100 μL lysate was combined with 100 μL 2×SDS buffer, and 20 μg total lysate was loaded into the wells of a 15% acrylamide/bisacrylamide gel. The gel was run for 60 min at 125 V and transferred onto nitrocellulose membrane for 45 min at 100 V. Anti-H4R3 rabbit pAb (Abcam, ab10158) or anti-H4R3me2s rabbit pAb (Abcam, ab5823) was diluted 1:1000 in PBST and incubated overnight at 4° C. Secondary IRDyeR 800CW Donkey anti-Rabbit IgG Secondary Antibody (Li-Cor, 926-32213) was diluted 1:20,000 in PBST and incubated with the membrane, which was then imaged via LiCor Odyssey CLx imager and analyzed with ImageStudioLite software (Li-Cor). Integrated intensity of H4R3me2s band was normalized to H4R3 to determine relative abundance of H4R3me2s across DMSO and Cpd 17-treated samples.

Series [4] has as its system RB1. As to the kind of experiment: RT-qPCR expression of RB1 in LNCaP cells. The following applies: 500 nM, 72 hours. The method, then:
as §2

For series [5], the target named is T1, PRMT5:MEP50 protein-protein interaction. As to the kind of experiment: Co-immunoprecipitation western blot in LNCaP cells. As to conditions: 500 nM, 24 hrs, three biological replicates. The method, then:
LNCaP cells were treated with either DMSO or compound 17 (500 nM, 24 hrs) and harvested for Co-IP and WB in lysis buffer composed of 50 mM Tris-HCl, pH 7.4, 100 mM NaCl, 10 mM EDTA, 0.1% Triton X-100, 1 mM DTT, 1 mM PMSF, and 5 μg each of chymostatin, leupeptin, pepstatin A, and […]. Cells were lysed over 1 hour rotating in 4° C. and supernatant cleared. Total lysate (1 mg/mL) was used for Co-IP with 4 μg rabbit anti-PRMT5 pAb (Millipore Sigma 07-405), rabbit anti-MEP50 pAb (Cell Signaling Technologies S2823S) or normal rabbit IgG (Millipore Sigma N01-100 UG) overnight. Antibody-bound proteins were precipitated with Pierce Protein A agarose beads (Thermo Scientific 20333). Antibodies and immunoprecipitated proteins were prepared for western blot by adding 50 μL 2×SDS buffer, boiling at 95° C. for 5 min, and storing at -80° C. or proceeding to western blot. Co-IP product, input sample, or ladder were loaded into a 10% acrylamide/bisacrylamide gel (20 μL Co-IP, 20 μL input (0.4% total), 5 μL ladder per lane). […] Band Intensity was determined with ImageLab software and ImageJ.
Background: A western blot detects proteins with antibodies after separation by electrophoresis.

Series [6] relates to LNCaP cells. As to the kind of experiment: MTT assay / growth of LNCaP cells. As to conditions: for IC50: 72 hours treatment. The method, then:
LNCaP cells were seeded at 7,000 cells per well of a 96-well cell culture plate and incubated 24 hours to allow for attachment. Test compounds were diluted in RPMI-1640/25% DMSO pre-dilutions and added to respective wells of the assay plate to maintain constant concentration of 0.25% DMSO. After addition of compounds, cells were returned to incubator (37° C., 5% CO2) for 72 hours. Following incubation, assay plates were removed from incubator and media aspirated. 30 μL complete RPMI supplemented with 0.5 mg/mL MTT (Sigma) was added to the plate, and plate returned to incubator for 4 hours. Plates were removed, and 88 μL DMSO was added. Plates were shaken at 700 rpm for 1 minute and read on spectrophotometer at 570 nm.
Background: Tetrazolium assays rely on reduction of a dye to a coloured formazan, in cell work by metabolically active cells.

Series [7] deals with PTEN. As to the kind of experiment: RT-qPCR expression of PTEN in LNCaP cells. As to conditions: 500 nM, 72 hours. How it is done: as §2
Series [8] deals with TP53. As to the kind of experiment: RT-qPCR expression of TP53 in LNCaP cells. The following applies: 500 nM, 72 hours. How it is done:
as §2

Series [9] deals with A549 cells. As to the kind of experiment: IC50 in A549 NSCLC cell line. The following applies: 72 hours treatment.
Series [10] has as its system Involucrine (IVL) gene. As to the kind of experiment: RT-qPCR expression of IVL in LNCaP cells. The following applies: 500 nM, 72 hours. The method, then:
as §2

Series [11] concerns COS-1 cells. As to the kind of experiment: Cell death seen in COS-1 cells during the BiFC screen. The following applies: 10 μM. How it is done: as §1, with “Referring to FIGS. 6A-6C, for the BiFC screen of compounds 13-22 (including 8a and 8b), COS-1 cells were transfected for 24 hours, treated with 0.5 μM of compounds for 18 hours, and then imaged as described above. Referring to FIG. 6C, for the BiFC screen of compounds 23-26 (including 8a and 8b), COS-1 cells were transfected for 24 hours, treated with 0.25 M of compounds for 18 hours, and then imaged as described above. BiFC drug screens were performed in single biological replicate as a high throughput screen to produce ranked order of compounds, although multiple biological replicate data was used whenever available.” left out

T1 sequence (O14744 whole entry): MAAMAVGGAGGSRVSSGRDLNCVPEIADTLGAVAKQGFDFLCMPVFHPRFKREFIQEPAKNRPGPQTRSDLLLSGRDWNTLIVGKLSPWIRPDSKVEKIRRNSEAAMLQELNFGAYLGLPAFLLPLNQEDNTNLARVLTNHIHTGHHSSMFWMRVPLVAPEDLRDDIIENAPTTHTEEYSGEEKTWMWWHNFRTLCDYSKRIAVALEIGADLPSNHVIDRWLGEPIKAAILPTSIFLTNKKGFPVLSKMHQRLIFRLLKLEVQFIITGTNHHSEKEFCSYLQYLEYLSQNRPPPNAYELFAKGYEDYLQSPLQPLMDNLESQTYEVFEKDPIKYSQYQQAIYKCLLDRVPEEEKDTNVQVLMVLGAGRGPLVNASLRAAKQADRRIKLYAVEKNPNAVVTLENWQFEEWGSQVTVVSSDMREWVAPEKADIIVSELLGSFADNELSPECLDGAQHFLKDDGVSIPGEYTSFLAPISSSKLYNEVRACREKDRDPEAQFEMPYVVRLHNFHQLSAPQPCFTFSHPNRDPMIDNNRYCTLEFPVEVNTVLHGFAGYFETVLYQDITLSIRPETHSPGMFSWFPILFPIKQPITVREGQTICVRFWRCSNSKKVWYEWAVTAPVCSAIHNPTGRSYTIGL

On to `Cc1noc(C)c1COc1cccc(C(=O)NNC(=O)c2ccc(C(F)(F)F)cn2)c1` [compound 15, N′-(3-((3,5-dimethylisoxazol-4-yl)methoxy)benzoyl)-5-(trifluoromethyl)picolinohydrazide], for which, in series [1] (500 nM), the “rank in BiFC screen (inhibition of PRMT5:MEP50)” value is given as “top four inhibitors”.

By IC50 is commonly meant the concentration that inhibits the measured activity by half. Low values mean greater potency in that assay, high ones weaker potency in that assay. Regarding `CCc1noc(C)c1COc1cccc(C(=O)NNC(=O)c2ccc3ccccc3n2)c1` [compound 17, N′-(3-((3-ethyl-5-methylisoxazol-4-yl)methoxy)benzoyl)quinoline-2-carbohydrazide], in [2], the “expression of PRMT5:pICln-regulated AR gene” value was “without significantly altering expression”. Further, the “dose dependence of global H4R3me2s levels” value in series [3] (LNCaP cells, 250, 500 and 1000 nM) is given as “decreased in a dose-dependent manner”. Besides, in series [3] (LNCaP cells), the “decrease of global H4R3me2s” value was 65%. In addition, the “rank in BiFC screen (inhibition of PRMT5:MEP50)” value was “most effective” in series [1] (250 nM) and “top four inhibitors” in series [1] (500 nM). In series [4], the “expression of RB1” value is on record as “upregulation”. In series [5], the “decrease in amount of MEP50 co-immunoprecipitated with PRMT5 bait” value is given as 65.4%. Moreover, the IC50 was 430 nM in series [6]; < 450 nM in series [6] (Homo sapiens, LNCaP, 72 h); 447 nM in series [9]; < 450 nM in series [9] (Homo sapiens, A549, 72 h). Also, the “suppression of growth and induction of cell death” value in series [6] (LNCaP cells, 250 nM, 500 nM and 1000 nM, 72 hours) was “both suppression of growth and induction of cell death in a dose-dependent manner”. Also, the “expression of PTEN” value in series [7] is recorded as “upregulation”. For the same molecule, the “expression of TP53” value in series [8] is “to some extent TP53, albeit statistically insignificant”. Also, the “expression of PRMT5:MEP50-regulated IVL gene” value in series [10] is reported as “significantly de-represses”.

Usually inhibition stands for the drop in the measured response relative to a control, in per cent. Regarding `Cc1noc(C)c1COc1cccc(C(=O)NNC(=O)c2ccc3ccccc3n2)c1` [compound 8, N′-(3-((3,5-dimethylisoxazol-4-yl)methoxy)benzoyl)quinoline-2-carbohydrazide], the inhibition at 0.25 µM in [1] (0.25 μM, read-out: inhibition of the BiFC efficiency) was 41%. Also, the “rank in BiFC screen (inhibition of PRMT5:MEP50)” value in [1] (500 nM) is listed as “top four inhibitors”. Further, the “dose-response of BiFC efficiency inhibition” value in series [1] (0.25-5 μM) is “dose-dependent manner”. In addition, in series [11], the “cell death on treatment in the BiFC assay” value is “significant cell death”. This molecule came in with an IC50 in [6] (Homo sapiens, LNCaP, 72 h) of 1660 nM.
